In patent US20060210658A1, “Processes for obtaining (-)-guaiol and the use thereof” (priority 2000, published 2006):

Legend:
Assay in all cases: Antimicrobial action test (MIC)
Format in all cases: cell-based
Porphyromonas gingivalis = system: Porphyromonas gingivalis
Excerpt: (§1) Examples (Table 1): (MIC—minimum inhibitory concentration)

Epidermophyton floccosum = system: Epidermophyton floccosum
Excerpt: as §1
(§2) Examples: (MIC=minimum inhibitory concentration)

Malassezia furfur = system: Malassezia furfur
Excerpt: as §1, §2

Microsporum canis = system: Microsporum canis
Excerpt: as §1, §2

Microsporum gypseum = system: Microsporum gypseum
Excerpt: as §1, §2

Selenomonas artemidis = system: Selenomonas artemidis
Excerpt: as §1, §2

Staphylococcus aureus = system: Staphylococcus aureus
Excerpt: as §1, §2

Staphylococcus mutans = system: Staphylococcus mutans
Excerpt: as §1, §2

Staphylococcus sobrinus = system: Staphylococcus sobrinus
Excerpt: as §1, §2

[1] = system: Trichophyton mentagrophytes
Excerpt: as §1, §2

Trichophyton rubrum = system: Trichophyton rubrum
Excerpt: as §1, §2

[2] = system: Trichophyton schoenleinii
Excerpt: as §1, §2

Measured: MIC (minimum inhibitory concentration)

cyclodextrin [pure cyclodextrin]
>10000 ppm: all assays above
